According to US20230292776A1, “GAS PHASE TREATMENT OF PRODUCE” (priority 2022, published 2023):

Assays:
[1] = test system: Penicillium italicum (Pi); assay: Antifungal activity of vapor against Penicillium italicum (Pi) in wounded, infected mandarins; assay type: in vivo
Method: Example 2. The antifungal activity of allyl isothiocyanate (AITC) and DADS vapor was tested against Pd and Penicillium italicum (Pi) in mandarins. All samples were wounded by puncturing with a screw. Mandarins were infected by dispensing either 1000 Pd spores or 1000 Pi spores suspended in 10 μL into the wound. The test groups consisted of mandarins that were: uninfected and untreated; uninfected and treated by dipping in a solution of 1 g/L of imazalil; infected with Pd and untreated; infected with Pd and exposed to AITC; infected with Pd and exposed to DADS; infected with Pi and untreated; infected with Pi and exposed to AITC; and infected with Pi and exposed to DADS. Exposure to AITC or DADS consisted of exposing the mandarins for 72 hours to the vapor of 3 mL of the respective compound dispensed in a Petri dish. […] DADS vapor reduced the incidence of Pd mold by 85% and Pi mold by 30% compared to the respective untreated/infected test groups. […] Both AITC and DADS were effective at preventing fungal growth. The inhibition from AITC was approximately 100%, with some changes in visible appearance.

[2] = test system: Colletotrichum gloeosporioides (Cg); assay: Antifungal activity against Colletotrichum gloeosporioides (Cg) in wounded, infected avocados; assay type: in vivo; conditions: for reduction of the incidence of Cg mold compared to the untreated test group: vapor of 3 mL in a Petri dish; for incidence of Cg mold: day 5
Method: Example 7. The antifungal activity of AITC and DADS vapor against Colletotrichum gloeosporioides (Cg) was tested in avocados. All test pieces were wounded by removing the stem and infected by dispensing 1000 Cg spores suspended in 10 μL of water into the wound. The test groups consisted of avocados that were: untreated and uninfected; untreated and infected; treated by dipping in a solution of 0.1 g/L of prochloraz; exposed to the vapor of 3 mL of AITC disposed in a Petri dish; and exposed to the vapor of 3 mL of DADS disposed in a Petri dish. FIG. 9 quantifies the infection results. AITC vapor reduced the incidence of Cg mold by 97% compared to the untreated test group and 70% compared to the prochloraz treated test group. DADS vapor reduced the incidence of Cg mold by 60% compared to the untreated test group.
Example 8. The antifungal activity of a range of DADS vapor exposure times was tested against Cg in avocados. All test pieces were wounded by removing the stem and infected by dispensing 1000 Cg spores suspended in 10 μL of water into the wound. The test groups consisted of avocados that were: infected and untreated; and exposed to the vapor of 3 mL of DADS in a Petri dish for 24 hours, 48 hours, and 72 hours. FIG. 10 quantifies the infection results. Test group exposed to DADS vapor at all exposure times reduced the incidence of Cg mold compared to the untreated test group. A 24 hour DADS exposure reduced the incidence of Cg mold by 8%. A 48 hour DADS exposure reduced the incidence of Cg mold by 25%. A 72 hour DADS exposure reduced the incidence of Cg mold by 57%.
Example 9. The antifungal activity of a range of AITC and carvacrol vapor exposure times was tested against Cg in avocados. To measure the effect of the various treatments on ripening, durometer shore was taken after 7 days of incubation at ambient temperature and high humidity. All samples were wounded by removing the stem and infected by dispensing 1000 Cg spores suspended in 10 μL of water in the wound. The test groups consisted of avocados that were: infected and left untreated on the benchtop; infected and left untreated under a fume hood; exposed to the vapor of 3 mL of AITC in a Petri dish for 24 hours, 48 hours, and 72 hours; and exposed to the vapor of 3 mL of carvacrol in a Petri dish for 72 hours. FIG. 11 quantifies the infection results. […] All exposure times to AITC vapor reduced the incidence of Cg mold compared to the untreated samples. A 24 hour AITC exposure reduced the incidence of Cg mold by 90%. A 48 hour AITC exposure reduced the incidence of Cg mold by 97%. A 72 hour AITC exposure reduced the incidence of Cg mold by 83%.
Example 10. The antifungal activity of a range of AITC vapor exposure times were tested against Cg in avocados. To measure the effect of the various treatments on ripening, durometer shore was taken after 6 days of incubation at ambient temperature and high humidity. All samples were wounded by removing the stem and infected by dispensing 1000 Cg spores suspended in 10 μL of water in each wound. The test groups consisted of avocados that were: infected and left untreated on the benchtop; infected and left untreated in a fume hood; exposed to the vapor of 3 mL of AITC in a Petri dish for 24 hours, 48 hours, and 72 hours. FIG. 13 quantifies the infection results. […] All exposure times to AITC vapor reduced the incidence of Cg mold compared to the untreated samples.
Example 21. The antifungal activity of avocados exposed to AITC vapor and prochloraz was tested against Cg in avocados. To measure the effect of the various treatments on ripening, durometer shore was taken after 5 days of incubation at ambient temperature (about 20° C. to about 25° C.) and high humidity (about 88% relative humidity to about 93% relative humidity). All samples were wounded by removing the stem and infected by dispensing 1000 Cg spores suspended in 10 μL of water in the wound. […]

[3] = test system: Botrytis cinerea (Bc); assay: Antifungal activity of vapor against Botrytis cinerea (Bc) in grapes; assay type: in vivo; conditions: Example 12; vapor of 3 mL in a Petri dish for 72 hours
Method: (§1) Example 12. The antifungal activity of AITC and DADS vapor against Botrytis cinerea (Bc) in grapes was tested. All samples were wounded by making a 3 mm deep puncture in the skin. Samples were infected by dispensing 1000 Bc spores suspended in 10 μL of water in the wound. The test groups consisted of grapes that were: uninfected and untreated; infected and untreated; exposed to the vapor of 3 mL of AITC in a Petri dish for 72 hours; and exposed to the vapor of 3 mL of DADS in a Petri dish for 72 hours. FIG. 17 quantifies the infection results. […] Both AITC and DADS vapor were effective at controlling Bc mold. Treatment with AITC can potentially lead to changes in color or flavor of the grapes.

[4] = test system: grapes; assay: Visible appearance of vapor-treated grapes; assay type: in vivo, grape
Method: as §1

Structure (SMILES) | inhibition of fungal growth (Pi) ([1]; Example 2, 72 hours vapor of 3 mL) | reduction of the incidence of Cg mold compared to the untreated test group ([2]; Example 7, avocados) [%] | reduction of the incidence of Cg mold compared to the prochloraz treated test group ([2]; Example 7, avocados, vapor of 3 mL, prochloraz 0.1 g/L dip) [%] | reduction of the incidence of Cg mold ([2]; Example 9, avocados, vapor of 3 mL, 24 hour exposure) [%] | reduction of the incidence of Cg mold ([2]; Example 9, avocados, vapor of 3 mL, 48 hour exposure) [%] | reduction of the incidence of Cg mold ([2]; Example 9, avocados, vapor of 3 mL, 72 hour exposure) [%] | reduction of the incidence of Cg mold ([2]; Example 10, avocados, vapor of 3 mL, 24 hour exposure) [%] | reduction of the incidence of Cg mold ([2]; Example 10, avocados, vapor of 3 mL, 48 hour exposure) [%] | reduction of the incidence of Cg mold ([2]; Example 10, avocados, vapor of 3 mL, 72 hour exposure) [%] | incidence of Cg mold ([2]; Example 21, 125 μL, 30 minutes) | reduction of the incidence of Cg mold ([2]; Example 21, printed as 24 hour exposure) [%] | incidence of Cg mold ([2]; Example 22, AITC vapor 30 minutes) | Bc mold in grapes [3] | visible appearance of grapes ([4]; in vivo) | reduction of the incidence of Pi mold compared to untreated/infected test group ([1]; Example 2, 72 hours vapor of 3 mL in a Petri dish) [%] | reduction of the incidence of Cg mold ([2]; Example 8, avocados, vapor of 3 mL, 24 hour exposure) [%] | reduction of the incidence of Cg mold ([2]; Example 8, avocados, vapor of 3 mL, 48 hour exposure) [%] | reduction of the incidence of Cg mold ([2]; Example 8, avocados, vapor of 3 mL, 72 hour exposure) [%] | visible appearance of grapes ([4]; Example 12, vapor of 3 mL for 72 hours)
C=CCN=C=S [AITC, allyl isothiocyanate] | approximately 100% | 97 | 70 | 90 | 97 | 83 | 81.5 | 93.5 | 86.5 | reduced the incidence of Cg mold compared to the untreated samples and the prochloraz treated sample | 90 | reduced the incidence of Cg mold compared to the untreated samples, the samples treated with coating agent, and the prochloraz treated sample | substantially eliminated Bc mold | darkening of the fruit |  |  |  |  | 
C=CCSSCC=C [DADS, diallyl disulfide] |  | 60 |  |  |  |  |  |  |  |  |  |  | substantially eliminated Bc mold |  | 30 | 8 | 25 | 57 | appeared unchanged
